Measurements as given in PMC3722118, “Hellebrin and its aglycone form hellebrigenin display similar in vitro growth inhibitory effects in cancer cells and binding profiles to the alpha subunits of the Na^+/K^+-ATPase” (Molecular Cancer, 2013).
Like-named read-outs stand apart in the source and are kept apart here.

Experiments:
[1] = tested on: HCT-116 p53/wt and HCT-116 p53/ko colon carcinoma cells; assay: MTT viability, p53 wild-type versus knock-out model; type: cell-based, human; conditions: 72 hours
Excerpt: (§1) The following human cancer cell lines and their chemoresistant sublines were used in this study: the colon carcinoma cell line HCT-116 p53/wt and the p53 knock-out cell line HCT-116 p53/ko (generously donated by B. Vogelstein, Johns Hopkins University, Baltimore, MD, USA); the epidermal carcinoma-derived cell line KB-3-1 and the ABCB1-overexpressing subline KB-C-1 (generously donated by D.W. Shen, Bethesda, USA); the small cell lung carcinoma cell line GLC-4 and the ABCC1- and LRP-overexpressing subline GLC-4/ADR (from E.G. de Vries, Groningen, Netherlands); the ovarian carcinoma cell line A2780 and the cisplatin resistant subline A2780cis (purchased from Sigma-Aldrich); and the promyelocytic leukemia cell line HL60 and the mitoxantrone resistant subline HL60/mx (generously donated by G. Harker, Salt Lake City, USA). All cell lines were grown in RPMI 1640 supplemented with 10% fetal bovine serum with the exception of the HCT-116 cells, which were grown in McCoy’s medium with 10% serum.
(§2) Figure 4 Impact of different MDR mechanisms on the cytotoxicity of hellebrigenin. […] Viability was determined using a 3-(4,5-dimethythiazol-2-yl)-2,5-diphenyltetrazolium bromide (MTT) colorimetric assay. […]

[2] = tested on: MCF-7 breast cancer cells; assay: MTT colorimetric in vitro growth inhibition assay; type: cell-based, human; conditions: read-out: IC50 (nM) MCF-7
In short: (§3)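 In six-replicate experiments, the effect on growth was taken from formazan optical density relative to untreated cells after MTT reduction. Cells grew in RPMI supplemented with heat-inactivated FCS at 10%.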

HT-29 colon cancer cells = assay: MTT colorimetric in vitro growth inhibition assay; type: cell-based, human; conditions: read-out: IC50 (nM) HT-29
In short: as §3

U373 glioma cells = assay: MTT colorimetric in vitro growth inhibition assay; type: cell-based, human; conditions: read-out: IC50 (nM) U373
In short: as §3

T98G glioma cells = assay: MTT colorimetric in vitro growth inhibition assay; type: cell-based, human; conditions: read-out: IC50 (nM) T98G
In short: as §3

SKMEL-28 melanoma cells = assay: MTT colorimetric in vitro growth inhibition assay; type: cell-based, human; conditions: read-out: IC50 (nM) SKMEL-28
In short: as §3

[3] = tested on: PC-3 prostate cancer cells; assay: MTT colorimetric in vitro growth inhibition assay; type: cell-based, human; conditions: read-out: IC50 (nM) PC-3
In short: as §3

Hs683 glioma cells = assay: MTT colorimetric in vitro growth inhibition assay; type: cell-based, human; conditions: read-out: IC50 (nM) Hs683
In short: as §3

A549 NSCLC cells = assay: MTT colorimetric in vitro growth inhibition assay; type: cell-based, human; conditions: read-out: IC50 (nM) A549
In short: as §3

MDR cancer cell models = assay: MTT viability in several MDR cancer cell models; type: cell-based, human; conditions: overexpression of ABC-transporters and/or altered glutathione metabolism, 72 hours
Excerpt: as §1, §2

[4] = target: T1, purified human α1β1 Na+/K+-ATPase (Homo sapiens, UniProt P05023); assay: Inhibition of NaK activity of purified detergent-soluble complex (Pi release); type: biochemical; conditions: for selectivity in inhibition of NaK activity of all of the purified complexes: comparison of α1β1, α2β1, α3β1 purified complexes
T1 construct: made in house; host or cells: Pichia pastoris strain SMD1165; detergent-soluble complex purified
Experimental: The inhibition of NaK activity of the purified detergent-soluble α1β1, α2β1, and α3β1 complexes by cardiotonic steroids and an analysis of the inhibition data (Ki values) were also performed as previously described. The inhibitors were added to the recombinant enzyme (0.08–0.2 μg of protein) in 400 μl of reaction medium containing 130 mM NaCl, 5 mM KCl, 3 mM MgCl2, 25 mM histidine, pH 7.4, 1 mM EGTA, 0.01 mg/ml SOPS, 0.001 mg/ml cholesterol, and 0.005 mg/ml C12 E8 in 48-well plates. The reaction (37°C for 1 h) was started by the addition of 1mM ATP. Pi release was measured with a malachite green dye to detect the phosphor-molybdate (Pi Color Lock, Innova Biosciences). The percent inhibition V /V0 was calculated for each cardiac glycoside concentration, and Ki values were obtained by fitting the data to the function V /V0 = Ki /([CG] + Ki ) (using Kaleidagraph). V0 and V represent the control rate and rate of NaK-ATPase activity at particular concentrations of cardiac glycosides, [CG], respectively.
Average KD or Ki values ± SEM for each isoform were calculated. Statistical significance was calculated by the unpaired Students t-test. P values <0.05 were considered significant.

[5] = three days of culture, * three independent experiments, ** one experiment, six replicates

## C[C@]12CC[C@H]3[C@@H](CC[C@]4(O)C[C@@H](O)CC[C@]34C=O)[C@@]1(O)CC[C@@H]2c1ccc(=O)oc1 [Hellebrigenin]
[1]
  in vitro growth inhibitory activity in p53 wild-type versus p53KO HCT-116 cells: similar
[2]; [5]
  IC50: 42 ± 2 nM
HT-29 colon cancer cells; [5]
  IC50: 9 ± 1 nM
U373 glioma cells; [5]
  IC50: 9 ± 1 nM
T98G glioma cells; [5]
  IC50: 9 ± 1 nM
SKMEL-28 melanoma cells; [5]
  IC50: 28 ± 9 nM
[3]; [5]
  IC50: 18 ± 1 nM
Hs683 glioma cells; [5]
  IC50: 6 ± 1 nM
A549 NSCLC cells; [5]
  IC50: 3 ± 1 nM
MDR cancer cell models
  activity in several MDR cancer cell models versus parental cells: equally active
[4]; 37°C, 1 h, 1 mM ATP, read-out: Ki for inhibition of NaK activity of purified human α1β1
  Ki: 46 ± 6 nM
[4]
  selectivity in inhibition of NaK activity of all of the purified complexes: no selectivity

## C[C@@H]1O[C@@H](O[C@H]2CC[C@]3(C=O)[C@H]4CC[C@]5(C)[C@@H](c6ccc(=O)oc6)CC[C@]5(O)[C@@H]4CC[C@]3(O)C2)[C@H](O)[C@H](O)[C@H]1O[C@@H]1O[C@H](CO)[C@@H](O)[C@H](O)[C@H]1O [Hellebrin]
[1]
  in vitro growth inhibitory activity in p53 wild-type versus p53KO HCT-116 cells: similar
[2]; Homo sapiens, MCF7, 72 h
  IC50: 58 ± 12 nM
HT-29 colon cancer cells; Homo sapiens, HT-29, 72 h
  IC50: 27 ± 4 nM
U373 glioma cells; Homo sapiens, U373 MG, 72 h
  IC50: 41 ± 2 nM
T98G glioma cells; Homo sapiens, T98G, 72 h
  IC50: 30 ± 1 nM
SKMEL-28 melanoma cells; Homo sapiens, SK-MEL-28, 72 h
  IC50: 40 ± 5 nM
[3]; Homo sapiens, 72 h
  IC50: 11 ± 1 nM
Hs683 glioma cells; Homo sapiens, Hs 683, 72 h
  IC50: 7 ± 1 nM
A549 NSCLC cells; Homo sapiens, A549, 72 h
  IC50: 6 ± 1 nM
MDR cancer cell models
  activity in several MDR cancer cell models versus parental cells: equally active
[4]
  Ki: 103 ± 7 nM
  selectivity in inhibition of NaK activity of all of the purified complexes: no selectivity
